Target: T1, adrenoceptor alpha 2A (ADRA2A) (Homo sapiens, UniProt P08913)
T1 construct: expressed in transfected cells
T1 sequence (P08913 1-465): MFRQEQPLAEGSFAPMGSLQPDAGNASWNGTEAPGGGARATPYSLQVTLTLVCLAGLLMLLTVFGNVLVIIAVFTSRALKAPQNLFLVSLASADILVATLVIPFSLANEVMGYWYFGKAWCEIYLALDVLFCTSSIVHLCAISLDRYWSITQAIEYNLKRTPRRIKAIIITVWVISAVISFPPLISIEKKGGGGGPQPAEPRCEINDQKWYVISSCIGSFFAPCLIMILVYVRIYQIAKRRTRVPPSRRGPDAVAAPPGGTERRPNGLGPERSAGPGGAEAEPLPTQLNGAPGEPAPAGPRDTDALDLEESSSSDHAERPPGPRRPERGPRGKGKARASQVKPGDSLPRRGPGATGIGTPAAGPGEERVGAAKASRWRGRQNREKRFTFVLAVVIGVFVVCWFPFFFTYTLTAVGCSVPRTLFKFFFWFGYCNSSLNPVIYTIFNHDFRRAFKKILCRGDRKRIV
Assay: ADRA2A agonist assay (cAMP secondary messenger pathway, HitHunter cAMP XS+)
Type: cell-based
Description: Compounds of the present disclosure (e.g., one or more compounds of Formula (1), (II), (III), Table 1 or Table 2) may be tested for activity in receptor binding assays using methods known in the art, to evaluate agonist, antagonist, inverse agonist and other modes of activity. For example compounds of the disclosure may be tested in a adrenoceptor alpha 2A (ADRA2A) Agonist assay as follows:
Cell lines stably expressing non-tagged adrenoceptor alpha 2A (ADRA2A) that signal through cAMP were used. Agonist assays monitored by the activation of ADRA2A via Gi or Gs secondary messenger signaling in a homogenous, non-imaging assay format using a technology called Enzyme Fragment Complementation (EFC) with P-galactosidase (p-Gal) as the functional reporter.
The enzyme is split into two complementary portions: EA for Enzyme Acceptor and ED for Enzyme Donor. ED is fused to cAMP and in the assay competes with cAMP generated by cells for binding to a cAMP-specific antibody. Active P-Gal is formed by complementation of exogenous EA to any unbound ED cAMP. Active enzyme can then convert a chemiluminescent substrate, generating an output signal detectable on a standard microplate reader.
• 1. cAMP assay ADRA2A cell lines were expanded from freezer stocks according to standard procedures. • 2. Cells were seeded in a total volume of 20 μL into white walled, 384 well microplates and incubated at 37° C. for the appropriate time prior to testing • 3. cAMP modulation was determined using the DiscoverX HitHunter cAMP XS+ assay Gs Agonist Format • 1. For agonist determination, cells were incubated with sample to induce response. • 2. Media was aspirated from cells and replaced with 15 μL 2:1 HBSS/10 mM Hepes: cAMP XS+Ab reagent. • 3. Intermediate dilution of sample stocks was performed to generate 4× sample in assay buffer. • 4. 5 μL of 4× sample was added to cells and incubated at 37° C. or room temperature for 30 or 60 minutes. Vehicle concentration was 1%. Gi Agonist Format • 1. For agonist determination, cells were incubated with sample in the presence of EC80 forskolin to induce response. • 2. Media was aspirated from cells and replaced with 15 μL 2:1 HBSS/10 mM Hepes: cAMP XS+Ab reagent. • 3. Intermediate dilution of sample stocks was performed to generate 4× sample in assay buffer containing 4× EC80 forskolin. • 4. 5 μL of 4× sample was added to cells and incubated at 37° C. or room temperature for 30 or 60 minutes. Final assay vehicle concentration was 1% Signal Detection • 1. After appropriate compound incubation, assay signal was generated through incubation with 20 μL cAMP XS+ED/CL lysis cocktail for one hour followed by incubation with 20 μL cAMP XS+EA reagent for three hours at room temperature. • 2. Microplates were read following signal generation with a PerkinElmer Envision™ instrument for chemiluminescent signal detection. Data Analysis • 1. Compound activity was analyzed using CBIS data analysis suite (ChemInnovation, CA) • 2. For Gs agonist mode assays, percentage activity is calculated using the following formula: % Activity=100%×(mean RLU of test sample−mean RLU of vehicle control)/(mean RLU of MAX control−mean RLU of vehicle control). • 3. For Gi agonist mode assays, percentage activity is calculated using the following formula: % Activity=100%×(1−(mean RLU of test sample-mean RLU of MAX control)/(mean RLU of vehicle control-mean RLU of MAX control))

Compound: CCCCCc1cc(O)c(C/C=C(\C)CCC=C(C)C)c(O)c1 [CBG, cannabigerol]
- Curve Bottom: 17.138
- Curve Top: 167.56
- Hill: 1.5564
- Emax (read-out: Max Response): 163%
- EC50 (read-out: RC50 (Result Type EC50)): 1340 nM

From patent US12433903B2 (priority 2021, dated 2025)
